According to PubChem BioAssay AID248 (DTP/NCI, 2004):
“And” between values parts separate entries of the source, which are not always exact repeats. Equal values may be shown once. Toxic doses and inconclusive results are not listed. Cut-off read from the data, not from the text of the source: active = T/C of 150% or more; inactive = T/C below 125%.

Test system: L1210 leukemia ip in BDF1 mice, survival T/C
Assay: NCI In Vivo Anticancer Drug Screen. Data for tumor model L1210 Leukemia (intraperitoneal) in B6D2F1 (BDF1) mice
Conditions: endpoint: mean survival time, higher = longer survival
How it was run: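 Antitumor effect is assessed in tumor-bearing animals. Survival in the compound arm is compared with a vehicle-dosed control arm and expressed as their quotient.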

[1] = dose: 100.0 mg/kg/injection, schedule: Q01DX001 (ip), vehicle: Klucel (hydroxypropylcellulose) (HPC)
[2] = dose: 100.0 mg/kg/injection, schedule: Q01DX001 (ip), vehicle: saline
[3] = dose: 200.0 mg/kg/injection, schedule: Q01DX001 (ip), vehicle: saline
[4] = dose: 100.0 mg/kg/injection, schedule: Q01DX009 (ip), vehicle: Klucel (hydroxypropylcellulose) (HPC)
[5] = dose: 100.0 mg/kg/injection, schedule: Q04DX003 (ip), vehicle: Klucel (hydroxypropylcellulose) (HPC)
[6] = dose: 200.0 mg/kg/injection, schedule: Q01DX009 (ip), vehicle: Klucel (hydroxypropylcellulose) (HPC)
[7] = dose: 200.0 mg/kg/injection, schedule: Q04DX003 (ip), vehicle: Klucel (hydroxypropylcellulose) (HPC)
[8] = dose: 400.0 mg/kg/injection, schedule: Q01DX009 (ip), vehicle: Klucel (hydroxypropylcellulose) (HPC)
[9] = dose: 400.0 mg/kg/injection, schedule: Q04DX003 (ip), vehicle: Klucel (hydroxypropylcellulose) (HPC)
[10] = dose: 50.0 mg/kg/injection, schedule: Q01DX009 (ip), vehicle: Klucel (hydroxypropylcellulose) (HPC)
[11] = dose: 100.0 mg/kg/injection, schedule: Q04DX003 (ip), vehicle: saline with Tween-80
[12] = dose: 200.0 mg/kg/injection, schedule: Q04DX003 (ip), vehicle: saline with Tween-80
[13] = dose: 400.0 mg/kg/injection, schedule: Q04DX003 (ip), vehicle: saline with Tween-80
[14] = dose: 400.0 mg/kg/injection, schedule: Q01DX001 (ip), vehicle: saline
[15] = dose: 100.0 mg/kg/injection, schedule: Q04DX002 (ip), vehicle: Klucel (hydroxypropylcellulose) (HPC)
[16] = dose: 200.0 mg/kg/injection, schedule: Q04DX002 (ip), vehicle: Klucel (hydroxypropylcellulose) (HPC)
[17] = dose: 400.0 mg/kg/injection, schedule: Q04DX002 (ip), vehicle: Klucel (hydroxypropylcellulose) (HPC)
[18] = dose: 100.0 mg/kg/injection, schedule: Q01DX009 (ip), vehicle: saline with Tween-80
[19] = dose: 200.0 mg/kg/injection, schedule: Q01DX009 (ip), vehicle: saline with Tween-80
[20] = dose: 200.0 mg/kg/injection, schedule: Q01DX001 (ip), vehicle: Klucel (hydroxypropylcellulose) (HPC)
[21] = dose: 400.0 mg/kg/injection, schedule: Q01DX001 (ip), vehicle: Klucel (hydroxypropylcellulose) (HPC)

Measured: T/C

O=c1c(Cl)c(C(Cl)(Cl)Cl)n(O)c2ccccc12
inactive: dose: 6.25 mg/kg/injection, schedule: Q01DX001 (ip), vehicle: Klucel (hydroxypropylcellulose) (HPC) 104 % of control | dose: 12.5 mg/kg/injection, schedule: Q01DX001 (ip), vehicle: Klucel (hydroxypropylcellulose) (HPC) 104 % of control | dose: 25.0 mg/kg/injection, schedule: Q01DX001 (ip), vehicle: Klucel (hydroxypropylcellulose) (HPC) 98 % of control | dose: 50.0 mg/kg/injection, schedule: Q01DX001 (ip), vehicle: Klucel (hydroxypropylcellulose) (HPC) 103 % of control | [1] 95 % of control

c1ccc(N(c2ccccc2)N(c2ccccc2)c2ccccc2)cc1
inactive: dose: 12.5 mg/kg/injection, schedule: Q01DX009 (ip), vehicle: saline 90 % of control | dose: 50.0 mg/kg/injection, schedule: Q04DX003 (ip), vehicle: saline 89 % of control | [2] 88 % of control | [3] 88 % of control

CC(C)(C)NC(C1=CC(C)(C)c2ccccc2C1=O)c1ccccc1 (stereo not drawn)
inactive: [4] 98 % of control | [5] 110 % of control | [6] 104 % of control | [7] 102 % of control | [8] 101 % of control | [9] 102 % of control

COC(=O)c1ccccc1NC(=O)Nc1ccc(F)c([N+](=O)[O-])c1
inactive: dose: 25.0 mg/kg/injection, schedule: Q01DX009 (ip), vehicle: Klucel (hydroxypropylcellulose) (HPC) 109 % of control | [10] 103 % of control | [4] 93 % of control and 89 % of control | [6] 95 % of control | [8] 93 % of control

CCOC(=O)C(CC)C(=O)OCC
inactive: [11] 104 % of control | [12] 98 % of control | [13] 93 % of control

O=CO.[Cr]
inactive: [2] 102 % of control | [3] 98 % of control | [14] 98 % of control

Cc1[nH]c2ccccc2c(=O)c1/C=N/NC(N)=S
inactive: [15] 109 % of control | [16] 91 % of control | [17] 98 % of control

NC(N)=NCCCNCCCN=C(N)N
inactive: dose: 17.5 mg/kg/injection, schedule: Q01DX Z (oral), vehicle: saline 100 % of control | dose: 35.0 mg/kg/injection, schedule: Q01DX Z (oral), vehicle: saline 101 % of control | dose: 70.0 mg/kg/injection, schedule: Q01DX Z (oral), vehicle: saline 114 % of control | dose: 140.0 mg/kg/injection, schedule: Q01DX Z (oral), vehicle: saline 117 % of control

Cc1ccc(NC(=O)Oc2c(C)cccc2C)c([N+](=O)[O-])c1
inactive: [10] 93 % of control | [4] 87 % of control

CC1CC=C(/C=N\NC(=O)c2ccc[n+](C)c2)C(C)O1 (stereo not drawn)
inactive: dose: 50.0 mg/kg/injection, schedule: Q01DX009 (ip), vehicle: saline with Tween-80 96 % of control | [18] 96 % of control | [19] 93 % of control

ClCC[n+]1csc2ccccc21
inactive: dose: 10.0 mg/kg/injection, schedule: Q01DX Z (ip), vehicle: saline 91 % of control | dose: 30.0 mg/kg/injection, schedule: Q01DX Z (ip), vehicle: saline 94 % of control | dose: 100.0 mg/kg/injection, schedule: Q01DX Z (ip), vehicle: saline 96 % of control | dose: 300.0 mg/kg/injection, schedule: Q01DX Z (ip), vehicle: saline 110 % of control

C[N+]1(C)C2CCCC1CC(=O)C2
inactive: dose: 150.0 mg/kg/injection, schedule: Q01DX001 (ip), vehicle: saline 107 % of control

CN(C)c1ccc(/C=N/NC(=O)c2cccc3ccccc23)c(Cl)c1
inactive: [14] 90 % of control

CCOC(=S)SCCSC(=S)OCC
inactive: [2] 105 % of control | [3] 100 % of control | [14] 97 % of control

O=C1CCC(=O)N1c1ccccc1Cl
inactive: dose: 87.5 mg/kg/injection, schedule: Q01DX001 (ip), vehicle: Klucel (hydroxypropylcellulose) (HPC) 102 % of control | dose: 175.0 mg/kg/injection, schedule: Q01DX001 (ip), vehicle: Klucel (hydroxypropylcellulose) (HPC) 106 % of control | dose: 350.0 mg/kg/injection, schedule: Q01DX001 (ip), vehicle: Klucel (hydroxypropylcellulose) (HPC) 98 % of control

COC(=O)C(CCC(=O)O)NC(=O)C(F)(F)F (stereo not drawn)
inactive: [1] 89 % of control | [20] 97 % of control | [21] 89 % of control

N#CCNC(=O)c1ccc(I)cc1
inactive: [1] 111 % of control | [20] 95 % of control | [21] 106 % of control

Clc1ccccc1-c1ccc2c(Cl)ccnc2c1
inactive: [2] 95 % of control | [3] 95 % of control | [14] 91 % of control

CCOC(=O)c1ccccc1NC(=O)c1ccccc1
inactive: [15] 100 % of control | [16] 103 % of control | [17] 103 % of control

[NH-]CC([NH-])=O.[NH-]CC([NH-])=O.[Ni]
inactive: dose: 3.12 mg/kg/injection, schedule: Q01DX009 (ip), vehicle: water 96 % of control | dose: 6.25 mg/kg/injection, schedule: Q01DX009 (ip), vehicle: water 100 % of control | dose: 12.5 mg/kg/injection, schedule: Q01DX009 (ip), vehicle: water 103 % of control

CCCN(CCC)C(=O)CCl
inactive: [2] 109 % of control | [3] 95 % of control

COc1ccc(/C=N/n2c(C)cc(C)c(C#N)c2=O)c(OC)c1OC
inactive: [18] 100 % of control | [11] 118 % of control | [19] 91 % of control | [12] 103 % of control | dose: 400.0 mg/kg/injection, schedule: Q01DX009 (ip), vehicle: saline with Tween-80 107 % of control | [13] 106 % of control

O=C(/C=C/c1ccccc1)c1ccc2c(c1)OCO2
inactive: dose: 100.0 mg/kg/injection, schedule: Q04DX003 (ip), vehicle: water 98 % of control | dose: 200.0 mg/kg/injection, schedule: Q04DX003 (ip), vehicle: water 96 % of control | dose: 400.0 mg/kg/injection, schedule: Q04DX003 (ip), vehicle: water 94 % of control

O=C1CCCC23C4CCCC4C12C1CCCC13 (stereo not drawn)
inactive: dose: 100.0 mg/kg/injection, schedule: Q04DX002 (ip), vehicle: gum acacia 100 % of control | dose: 200.0 mg/kg/injection, schedule: Q04DX002 (ip), vehicle: gum acacia 97 % of control | dose: 400.0 mg/kg/injection, schedule: Q04DX002 (ip), vehicle: gum acacia 100 % of control

Fc1cccc2ccc(Br)cc12
inactive: [5] 100 % of control | [7] 100 % of control | [9] 106 % of control

COC(=O)C(=O)CC(=O)c1cccc(C)c1
inactive: [15] 100 % of control | [16] 103 % of control | [17] 92 % of control

Cc1ccc(CNC(=S)Nc2ccccc2)c(C)c1
inactive: [15] 96 % of control | [16] 103 % of control | [17] 103 % of control
